The record followed here is PMC11365428 (The Journal of Biological Chemistry, 2024).

For orientation: EC50 means the midpoint of the concentration-response curve.

No end group written: not given here.

One assay addresses T1, apTKRPR-A (Aplysia californica, UniProt A0AAU7SSZ1).
T1 sequence (A0AAU7SSZ1 1-398): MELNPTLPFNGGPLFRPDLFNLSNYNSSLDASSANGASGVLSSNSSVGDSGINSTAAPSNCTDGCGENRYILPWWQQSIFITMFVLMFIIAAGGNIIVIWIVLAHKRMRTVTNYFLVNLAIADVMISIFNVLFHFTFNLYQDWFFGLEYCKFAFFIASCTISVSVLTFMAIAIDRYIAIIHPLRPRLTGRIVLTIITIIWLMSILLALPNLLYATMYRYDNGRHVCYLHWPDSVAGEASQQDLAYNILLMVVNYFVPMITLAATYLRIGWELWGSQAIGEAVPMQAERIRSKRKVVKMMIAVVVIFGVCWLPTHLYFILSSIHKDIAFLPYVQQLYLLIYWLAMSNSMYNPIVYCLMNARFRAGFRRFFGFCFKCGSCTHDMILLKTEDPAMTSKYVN
The assay is described as follows: IP1 accumulation assay, CHO-K1 cells transiently expressing apTKRPR-A. The assay is classed as cell-based. To be noted: for IP1 response of apTKRPR-A in screening: 10^-5 M compared with 10^-10 M (control), no Gαq cotransfection. On the procedure: (§1) To express putative Aplysia receptors transiently in CHO-K1 cells, the cDNAs were subcloned into the pcDNA3.1(+) or pcDNA3.1(+)-FLAG (for ELISA experiments only, see “Cell surface expression analysis by ELISA” section) expression vector. On the day before transfection, the CHO-K1 cells were passaged into 60 mm diameter tissue culture–treated dishes, and the transfection experiments were performed when the cells were grown to 70 to 90% confluence. CHO-K1 cells were transfected with the cDNA plasmid constructs using Turbofect Transfection reagent (Thermo Fisher Scientific, R0531), following the manufacturer’s instructions. […] The DNA/TurboFect mixture dropwise was then added to the dish, and the cells were incubated at 37 °C in a humidified incubator containing 5% CO2 overnight.
(§2) On the third day, the activation of the putative receptors was detected by monitoring intracellular IP1 concentration using an IP-One Gq kit (Cisbio, 62IPAPEB) in Tecan Spark. Except for using 0.5x reagent, all other procedures were performed following the manufacturer’s instructions. IP1 accumulation assay measures the accumulation of IP1, which is hydrolyzed from the second messenger, and inositol triphosphate. Inositol triphosphate is generated by the Gαq pathway when a GPCR is activated by an appropriate ligand.

The test system of assay [1] is putative neuropeptide FF receptor (apNPFFR). The assay is described as follows: IP1 accumulation assay, CHO-K1 cells transiently expressing putative neuropeptide FF receptor. Type of assay: cell-based, Aplysia californica. To be noted: 10^-5 M compared with 10^-10 M (control); n = 3; no Gαq cotransfection. On the procedure: To express putative Aplysia receptors transiently in CHO-K1 cells, the cDNAs were subcloned into the pcDNA3.1(+) or pcDNA3.1(+)-FLAG (for ELISA experiments only, see “Cell surface expression analysis by ELISA” section) expression vector. On the day before transfection, the CHO-K1 cells were passaged into 60 mm diameter tissue culture–treated dishes, and the transfection experiments were performed when the cells were grown to 70 to 90% confluence. CHO-K1 cells were transfected with the cDNA plasmid constructs using Turbofect Transfection reagent (Thermo Fisher Scientific, R0531), following the manufacturer’s instructions. In brief, 4 μg of the putative receptor plasmids [in pcDNA3.1(+) or pcDNA3.1(+)-FLAG] were mixed with 400 μl of Opti-MEM (Gibco, 11058021), followed by the addition of 15 μl of TurboFect Transfection reagent and incubated at room temperature for 15 min. The DNA/TurboFect mixture dropwise was then added to the dish, and the cells were incubated at 37 °C in a humidified incubator containing 5% CO2 overnight.
as §2, with “The next day, transfected cells were trypsinized and reseeded in an opaque white 96-well half-area (Corning, 3688) or 384-well tissue culture–treated plates (Corning, 3570) at a density of 20,000 cells/well in F-12K and 10% FBS and incubated at 37 °C in a humidified incubator containing 5% CO2 overnight. On the” for “On the”

A further assay addresses T2, apTKRPR-B (Aplysia californica, UniProt A0AAU7STS1).
T2 sequence (A0AAU7STS1 1-447): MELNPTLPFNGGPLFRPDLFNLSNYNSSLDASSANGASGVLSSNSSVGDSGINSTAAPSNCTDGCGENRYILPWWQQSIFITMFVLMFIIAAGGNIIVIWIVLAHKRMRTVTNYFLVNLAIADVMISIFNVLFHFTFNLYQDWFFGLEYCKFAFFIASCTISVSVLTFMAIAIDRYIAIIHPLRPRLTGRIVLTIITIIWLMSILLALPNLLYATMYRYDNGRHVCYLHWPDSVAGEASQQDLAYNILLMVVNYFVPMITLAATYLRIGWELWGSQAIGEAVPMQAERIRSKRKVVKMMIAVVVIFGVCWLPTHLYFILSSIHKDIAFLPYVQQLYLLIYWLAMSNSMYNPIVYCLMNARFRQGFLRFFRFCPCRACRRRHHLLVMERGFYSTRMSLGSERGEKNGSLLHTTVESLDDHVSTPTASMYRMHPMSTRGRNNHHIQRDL
The assay is described as follows: IP1 accumulation assay, CHO-K1 cells transiently expressing apTKRPR-B. Type of assay: cell-based. The following applies: for IP1 response of apTKRPR-B in screening: 10^-5 M compared with 10^-10 M (control), no Gαq cotransfection. On the procedure: as §1, §2

[2] abbreviates: co-transfected with Gαq (Gα16), 10^-5 M compared with 10^-10 M, n = 3.

Regarding H-QPHLGFHGSR-NH2 [apTKRP-2a], the “IP1 response of apTKRPR-A in screening” value on apTKRPR-A (n = 3) is listed as “responded”. The concentration giving a half-maximal response (EC50) at apTKRPR-A (log10 of EC50 in M, negative, IP1 accumulation, CHO-K1, mean ± SD of at least three independent experiments (apTKRP-1 n = 9; apTKRP-2a n = 11; apTKRP-2b n = 19; analogs, apTKRP-2b-OH n = 4), read-out: apTKRPR-A log[EC50] (converted)) was 107 nM; on apTKRPR-B (log10 of EC50 in M, negative, IP1 accumulation, CHO-K1, mean ± SD of at least three independent experiments (apTKRP-1 n = 9; apTKRP-2a n = 11; apTKRP-2b n = 19; analogs, apTKRP-2b-OH n = 4), read-out: apTKRPR-B log[EC50] (converted)), 12.9 nM. In addition, the “IP1 response of putative apNPFFR in screening” value in assay [1] is listed as “did not respond”. In addition, at apTKRPR-B (n = 3), the “IP1 response of apTKRPR-B in screening” value is listed as “responded”.

In the case of FMPGLESLLLAKYYQDAKW [apTKRPG-DP], on apTKRPR-A (n = 3), the “IP1 response of apTKRPR-A in screening” value is listed as “did not activate”. Moreover, the “IP1 response of apTKRPR-A in screening with Gαq cotransfection” value at apTKRPR-A (setting [2]) is recorded as “did not activate”. Further, the “IP1 response of putative apNPFFR in screening” value in assay [1] is recorded as “did not respond”. For the same substance, the “IP1 response of apTKRPR-B in screening” value at apTKRPR-B (n = 3) is on record as “did not activate”. In addition, the “IP1 response of apTKRPR-B in screening with Gαq cotransfection” value at apTKRPR-B (setting [2]) is given as “did not activate”.
